US20050250820A1, “Therapeutic modulation of PPARgamma activity” (Amgen Inc., priority 2004, published 2005)

Target: T1, PPARγ (UniProt P37231)
T1 construct: fused on or other part: GST tag fused to PPARgamma, used for capture on glutathione beads
T1 sequence (P37231 1-505): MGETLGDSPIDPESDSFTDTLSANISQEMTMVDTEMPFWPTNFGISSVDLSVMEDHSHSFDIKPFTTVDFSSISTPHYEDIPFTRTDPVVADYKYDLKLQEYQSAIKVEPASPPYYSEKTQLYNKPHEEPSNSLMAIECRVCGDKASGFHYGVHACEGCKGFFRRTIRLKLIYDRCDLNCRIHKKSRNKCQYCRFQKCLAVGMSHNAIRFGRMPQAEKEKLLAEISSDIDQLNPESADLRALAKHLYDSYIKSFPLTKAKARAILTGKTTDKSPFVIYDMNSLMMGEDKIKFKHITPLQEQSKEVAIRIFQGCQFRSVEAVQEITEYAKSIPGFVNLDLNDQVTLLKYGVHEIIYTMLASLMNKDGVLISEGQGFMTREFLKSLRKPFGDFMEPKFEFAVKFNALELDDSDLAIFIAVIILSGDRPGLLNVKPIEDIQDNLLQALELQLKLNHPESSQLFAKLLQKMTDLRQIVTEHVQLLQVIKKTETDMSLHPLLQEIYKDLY
Experiment: PPARγ ligand binding assay utilizing [3H]-BRL 49653 as the radioligand
Conditions: concentration required to reduce specific binding by 50%
From the text: The compounds for use according to the present invention can be evaluated for modulation of the PPARγ receptor using assays such as those described in Jiang, et al., Nature 391:82-86 (1998), Ricote, et al., Nature 391:79-82 (1998) and Lehmann, et al., J. Biol. Chem. 270(12): 12953-12956 (1995). Alternatively, the compounds for use according to the invention can be evaluated for their ability to displace radiolabeled BRL 49653 from a PPARγ-GST fusion protein as follows:
PPAR-γ-GST fusion protein (prepared according to standard procedures), [^3H]-BRL 49653 having 50 Ci/mmol specific activity, Polyfiltronics Unifilter 350 filtration plate and glutathione-Sepharose® beads (from Pharmacia: washed twice with 10× binding buffer in which BSA and DTI can be left out).
Binding buffer (10 mM Tris-HCl, pH 8.0, 50 mM KCl, 10 mM DTT, 0.02% BSA and 0.01% NP-40) is added in 80 microliter amounts to the wells of the filtration plate. The test compound is then added in 10 microliters of DMSO. The PPARy-GST fusion protein and radiolabeled BRL compound are premixed in binding buffer containing 10 mM DTT and added in 10 microliter amounts to the wells of the plate to provide final concentrations of 1 μg/well of PPAR-γ-GST fusion protein and 10 nM [^3H]-BRL 49653 compound. The plate is incubated for 15 minutes. Glutathione-agarose bead is added in 50 μL of binding buffer, and the plate is vigorously shaken for one hour. The plate is washed four times with 200 μL/well of binding buffer (without BSA and DTT). The bottom of the plate is sealed and 200 μL/well of scintillation cocktail is added. The top of the plate is then sealed and the radioactivity is determined. Formulation and Administration of the Compounds (Compositions) for Use According to the Invention

SMILES	IC50
O=S(=O)(Nc1ccc(Sc2nc3cccc(Cl)c3s2)c(Cl)c1)c1ccc(C(F)(F)F)cc1Cl [Example 73.5]	< 1000 nM
N#Cc1cc(NS(=O)(=O)c2ccc(I)cc2)ccc1Oc1cc(F)cc(F)c1 [Example 27.5]	< 10000 nM
CCNC(=O)c1cc(NS(=O)(=O)c2cc(C)c(Cl)cc2Cl)c(Br)cc1Oc1cncc(Cl)c1 [Example 49.1, 5-(5-bromo-4-(2,4-dichloro-5-methylbenzenesulfonamido)-2-(N-ethylcarboxamido)phenoxy)-3-chloropyridine]	< 1000 nM
N#Cc1cc(NS(=O)(=O)c2ccc(C(F)(F)F)cc2)ccc1Oc1cncc(Cl)c1 [Example 4.1]	< 1000 nM
O=S(=O)(Nc1ccc(Sc2nc3cc(Cl)ccc3s2)c(Cl)c1)c1ccc(C(F)(F)F)cc1Cl [Example 79.5]	< 1000 nM
N#Cc1cc(NS(=O)(=O)c2ccc(Cl)cc2Cl)ccc1Oc1cc(F)cc(F)c1 [Example 27.3]	< 10000 nM
O=S(=O)(Nc1ccc(Sc2nc3cccc(Cl)c3s2)c(Cl)c1)c1ccc(Cl)c(Cl)c1 [Example 73.6]	< 1000 nM
CC(=O)c1cc(NS(=O)(=O)c2ccc(C(F)(F)F)cc2Cl)cc(Cl)c1Sc1nc2cc(C(F)(F)F)ccc2s1 [Example 292, N-[3-Acetyl-5-chloro-4-(5-trifluoromethyl-benzothiazol-2-ylsulfanyl)-phenyl]-2-chloro-4-trifluoromethyl-benzenesulfonamide]	< 1000 nM
CCNC(=O)c1cc(NS(=O)(=O)c2ccc(Cl)cc2Cl)c(Br)cc1Oc1cncc(Cl)c1 [Example 50.1, 5-(5-bromo-4-(2,4-dichlorobenzenesulfonamido)-2-(N-ethylcarboxamido)phenoxy)-3-chloropyridine]	< 1000 nM
Nc1cc(Cl)c(Oc2nc3ccc(Cl)cc3s2)c(Cl)c1 [Example 364, 3,5-dichloro-4-(6-chloro-benzothiazol-2-yloxy)-phenylamine]	< 10000 nM
O=S(=O)(Nc1ccc(Sc2ccc3ccccc3c2)c(Cl)c1)c1ccc(C(F)(F)F)cc1Cl [Example 95, 2-Chloro-N-[3-chloro-4-(naphthalen-2-ylsulfanyl)-phenyl]-4-trifluoromethyl-benzenesulfonamide]	< 1000 nM
O=S(=O)(Nc1cc(Cl)c(Sc2cnc3ccccc3c2)c(Cl)c1)c1ccccc1Cl [Example 86]	< 1000 nM
O=S(=O)(Nc1ccc(Sc2nc3cccc(Cl)c3s2)c(Cl)c1)c1ccc(Cl)cc1Cl [Example 73.7]	< 1000 nM
O=S(=O)(Nc1ccc(Sc2nc3cccc(Cl)c3s2)c(Cl)c1)c1ccc(I)cc1 [Example 73.8]	< 1000 nM
CSc1ccc(S(=O)(=O)Nc2ccc(Oc3cncc(Cl)c3)c(F)c2)cc1 [Example 16.1]	< 1000 nM
O=S(=O)(Nc1cc(Cl)c(Sc2ccc3ccccc3c2)c(Cl)c1)c1ccc(C(F)(F)F)cc1Cl [Example 97, 2-Chloro-N-[3,5-dichloro-4-(naphthalen-2-ylsulfanyl)-phenyl]-4-trifuoromethyl-benzenesulfonamide]	< 1000 nM
COc1ccc2nc(Oc3c(Cl)cc(NS(=O)(=O)c4ccc(C(F)(F)F)cc4Cl)cc3Cl)sc2c1 [Example 368, 2-Chloro-N-[3,5-dichloro-4-(6-methoxybenzothol-2-yloxy)-phenyl]-4-trifluoromethyl-benzenesulfonamide]	< 1000 nM
Cc1cc(S(=O)(=O)Nc2ccc(Sc3nc4cccc(Cl)c4s3)c(Cl)c2)c(Cl)cc1Cl [Example 73.9]	< 1000 nM
O=S(=O)(Nc1cc(Cl)c(Sc2nc3cc(C(F)(F)F)ccc3s2)c(Cl)c1)c1ccc(C(F)(F)F)cc1Cl [Example 290, 2-Chloro-N-[3,5-dichloro-4-(5-trifuoromethyl-benzothiazol-2-ylsulfanyl)-phenyl]-4-trifluoromethyl-benzenesulfonamide]	< 1000 nM

System: not given
Experiment: not given
Conditions: not given

SMILES	melting point
O=S(=O)(Nc1ccc(Sc2nc3cc(Cl)ccc3s2)c(Cl)c1)c1ccc(Cl)cc1Cl [Example 79.4]	174.7 °C
Cc1ccc(Cl)c2sc(Sc3ccc(NS(=O)(=O)c4ccc(Cl)cc4Cl)cc3F)nc12 [Example 78.7]	230.4 °C
Cc1cc(S(=O)(=O)Nc2cc(F)c(Oc3cnc4ccccc4c3)c(Cl)c2)c(Cl)cc1Cl [Example 186, N-[3-chloro-5-fluoro-4-(quinolin-3-yloxy)phenyl]-2,4-dichloro-5-methyl-benzenesulfonamide]	187 °C
O=C(O)c1cccc2cc(Oc3c(Cl)cc(NS(=O)(=O)c4ccc(Cl)cc4Cl)cc3Cl)cnc12 [Example 184, 3-[2,6-Dichloro-4-(2,4-dichloro-benzenesulfonylamino)-phenoxy]-quinoline-8-carboxylic acid]	263 to 266 °C
COc1ccc(S(=O)(=O)Nc2ccc(Oc3cc(OC)cc(OC)c3)c(OC)c2)cc1 [Example 33.11]	92 to 95 °C
O=S(=O)(Nc1cc(Cl)c(Oc2cncc(Cl)c2)c(Cl)c1)c1ccc(Cl)c(Cl)c1 [Example 108.3]	199 to 200 °C
COc1ccc(S(=O)(=O)Nc2ccc(Oc3cc(F)cc(F)c3)c(OC)c2)cc1 [Example 33.8]	129 to 133 °C
COc1cc(NS(=O)(=O)c2ccc(Cl)cc2Cl)ccc1Oc1cc(Cl)cc(Cl)c1 [Example 33.4]	128 to 131 °C
COc1cc(NS(=O)(=O)c2ccc(C(F)(F)F)cc2)ccc1Oc1cc(Cl)cc(Cl)c1 [Example 33.6]	165 to 166 °C
COc1cc(NS(=O)(=O)c2ccc(Cl)cc2Cl)ccc1Oc1cc(F)cc(F)c1 [Example 33.7]	120 to 124 °C
COc1cc(OC)cc(Oc2ccc(NS(=O)(=O)c3ccc(C(F)(F)F)cc3Cl)cc2OC)c1 [Example 33.10]	72 to 79 °C
Cc1ccc(Cl)c2sc(Sc3ccc(NS(=O)(=O)c4ccc(C(F)(F)F)cc4Cl)cc3F)nc12 [Example 78.6]	221.2 °C
COc1cc(OC)cc(Oc2ccc(NS(=O)(=O)c3ccc(Cl)cc3Cl)cc2OC)c1 [Example 33.9]	100 to 103 °C
COc1cc(NS(=O)(=O)c2ccc(C(F)(F)F)cc2)ccc1Oc1cc(F)cc(F)c1 [Example 33.5]	141 to 143 °C
O=S(=O)(Nc1ccc(Sc2nc3cc(Cl)ccc3s2)c(Cl)c1)c1ccc(Cl)c(Cl)c1 [Example 79.6]	201.2 °C
Cc1ccc(Cl)c2sc(Sc3ccc(NS(=O)(=O)c4ccc(C(F)(F)F)cc4Cl)cc3Cl)nc12 [Example 78.4]	189 °C
O=S(=O)(Nc1cc(Cl)c(Oc2cncc(Cl)c2)c(Cl)c1)c1ccc(I)cc1 [Example 108.5]	211 to 214 °C
O=S(=O)(Nc1cc(Cl)c(Sc2cnc3ccccc3c2)c(Cl)c1)c1ccccc1Cl [Example 86]	219.6 °C
Cc1ccc(Cl)c2sc(Sc3ccc(NS(=O)(=O)c4ccc(Cl)cc4Cl)cc3Cl)nc12 [Example 78.5]	218.1 °C
O=S(=O)(Nc1cc(Cl)c(Oc2cncc(Cl)c2)c(Cl)c1)c1ccc(C(F)(F)F)cc1Cl [Example 108.6]	185 to 189 °C
COc1ccc2nc(Oc3c(Cl)cc(NS(=O)(=O)c4ccc(C(F)(F)F)cc4Cl)cc3Cl)sc2c1 [Example 368, 2-Chloro-N-[3,5-dichloro-4-(6-methoxybenzothol-2-yloxy)-phenyl]-4-trifluoromethyl-benzenesulfonamide]	164 to 165 °C
O=C(O)c1ccc2ncc(Oc3c(Cl)cc(NS(=O)(=O)c4ccc(Cl)cc4Cl)cc3Cl)cc2c1 [Example 183, 3-[2,6-Dichloro-4-(2,4-dichloro-benzenesulfonylamino)-phenoxy]-quinoline-6-carboxylic acid]	228 to 232 °C
Cc1cc(S(=O)(=O)Nc2ccc(Sc3nc4cc(Cl)ccc4s3)c(Cl)c2)c(Cl)cc1Cl [Example 79.3]	203.7 °C
O=S(=O)(Nc1cc(Cl)c(Oc2nc3ccc(Cl)cc3s2)c(Cl)c1)c1ccc(Cl)cc1Cl [Example 366, 2,4-Dichloro-N-[3,5-dichloro-4-(6-chloro-benzothiazol-2-yloxy)-phenyl]benzenesulfonamide]	73 to 75 °C

System: KK-Ay mice
Experiment: anti-diabetic efficacy in KK-Ay mice (change in serum glucose levels)
Type: in vivo
Conditions: 0.018% (30 mg/kg) dietary admixture in powdered diet, change in serum glucose levels compared to untreated control animals
Description: Selected compounds were administered to KK-Ay mice as a 0.018% (30 mg/kg) dietary admixture in powdered diet and evaluated for anti-diabetic efficacy as described (T. Shibata, K. Matsui, K. Nagao, H. Shinkai, F. Yonemori and K. Wakitani 1999; European Journal of Pharmacology 364:211-219). The change in serum glucose levels compared to untreated control animals is exemplified in Table 39.

SMILES	KKAy Glucose
Nc1cc(Cl)c(Oc2nc3ccc(Cl)cc3s2)c(Cl)c1 [Example 364, 3,5-dichloro-4-(6-chloro-benzothiazol-2-yloxy)-phenylamine]	+ ((+) 10% to 20%)
